Laboratory results as given in patent US9833497B2, “Human originated EGF domain proteins and use of the same” (CHENGDU SOURCEBIO LIMITED-LIABILITY COMPANY, priority 2013, dated 2017).

Legend:
Assay type in all cases: cell-based
[1] = test system: Enterobacter cloacae; assay: MIC against Gram-negative bacteria: Enterobacter cloacae
Procedure, shortened: (§1)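 Antibacterial activity of purified human EGF domain proteins: two-fold concentration series, triplicate wells, LB broth, 5×10^5 CFU/mL bacteria, 37° C shaking incubation. The lowest concentration without growth defines the MIC.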

[2] = test system: Klebsiella pneumonia; assay: MIC against Gram-negative bacteria: Klebsiella pneumonia
Procedure, shortened: as §1

[3] = test system: Pseudomonas aeruginosa; assay: MIC against Gram-negative bacteria: Pseudomonas aeruginosa
Procedure, shortened: as §1

[4] = test system: E. coli DH5α; assay: Antibacterial activity: MIC and growth curve against E. coli DH5α in 96-well plate; conditions: minimal inhibitory concentration against E. coli DH5α; 96-well plate, 5×10^5 CFU/mL, 37° C., judged after 8 h
Procedure, shortened: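 Log-phase DH5α (OD600 about 0.5, 37° C, 185 rpm in LB) was pelleted, resuspended in fresh LB and seeded at 5×10^5 CFU/mL with recombinant protein at 50, 25 and 12.5 μg/mL (two-fold series), in triplicate. Plates were shaken at 175 rpm, 37° C, and OD600 was read every 30 min. MIC was the lowest concentration with no growth.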

[5] = test system: Serratia marcescens; assay: MIC against Gram-negative bacteria: Serratia marcescens
Procedure, shortened: as §1

[6] = test system: Proteus vulgaris; assay: MIC against Gram-negative bacteria: Proteus vulgaris
Procedure, shortened: as §1

[7] = test system: Proteus mirabilis; assay: MIC against Gram-negative bacteria: Proteus mirabilis
Procedure, shortened: as §1

[8] = test system: E. coli BL21; assay: MIC against Gram-negative bacteria: E. coli BL21
Procedure, shortened: as §1

[9] = test system: Citrobacter diversus; assay: MIC against Gram-negative bacteria: Citrobacter diversus
Procedure, shortened: as §1

[10] = test system: Moraxella catarrhalis; assay: MIC against Gram-negative bacteria: Moraxella catarrhalis
Procedure, shortened: as §1

[11] = test system: Aeromonas hydrophila; assay: MIC against Gram-negative bacteria: Aeromonas hydrophila
Procedure, shortened: as §1

[12] = 96-well plate, 5×10^5 CFU/mL, 37° C., 10 h
[13] = E. cloacae, 10 h cultivation at 37° C., 5×10^5 CFU/mL
[14] = K. pneumonia, 10 h cultivation at 37° C., 5×10^5 CFU/mL
[15] = P. aeruginosa, 10 h cultivation at 37° C., 5×10^5 CFU/mL
[16] = S. marcescens, 10 h cultivation at 37° C., 5×10^5 CFU/mL
[17] = P. vulgaris, 10 h cultivation at 37° C., 5×10^5 CFU/mL
[18] = P. mirabilis, 10 h cultivation at 37° C., 5×10^5 CFU/mL
[19] = E. coli BL21, 10 h cultivation at 37° C., 5×10^5 CFU/mL
[20] = C. diversus, 10 h cultivation at 37° C., 5×10^5 CFU/mL
[21] = M. catarrhalis, 10 h cultivation at 37° C., 5×10^5 CFU/mL
[22] = A. hydrophila, 10 h cultivation at 37° C., 5×10^5 CFU/mL
[23] = 10 h cultivation at 37° C., 5×10^5 CFU/mL, two-fold serial dilution

PRT932 (QVNECLSNPCIHGNCTGGLSGYKCLCDAGWVGINCE; listed as Homo sapiens)
12.5 µg/mL: MIC ([2]; K. pneumonia, 10 h cultivation at 37° C.) | MIC ([3]; P. aeruginosa, 10 h cultivation at 37° C.) | MIC ([5]; S. marcescens, 10 h cultivation at 37° C.) | MIC ([6]; P. vulgaris, 10 h cultivation at 37° C.) | MIC ([10]; M. catarrhalis, 10 h cultivation at 37° C.) | MIC ([11]; A. hydrophila, 10 h cultivation at 37° C.)
25 µg/mL: MIC ([1]; E. cloacae, 10 h cultivation at 37° C.) | MIC [4] | MIC ([7]; P. mirabilis, 10 h cultivation at 37° C.) | MIC ([9]; C. diversus, 10 h cultivation at 37° C.)
50 µg/mL: MIC ([8]; E. coli BL21, 10 h cultivation at 37° C.)

PRT614 (CNCNLYGTMKQQSSCNPVTGQCECLPHVTGQDCGACDPGFYNLQSGQGCER; listed as Homo sapiens)
12.5 µg/mL: MIC E. cloacae [1, 12] | MIC P. vulgaris [6, 12] | MIC M. catarrhalis [10, 12] | MIC A. hydrophila [11, 12]
25 µg/mL: MIC S. marcescens [5, 12] | MIC P. mirabilis [7, 12] | MIC C. diversus [9, 12]
50 µg/mL: MIC K. pneumonia [2, 12] | MIC P. aeruginosa [3, 12] | MIC [4] | MIC E. coli BL21 [8, 12]

PRT1472 (LEHPCASLCCGHGTCIDGIGSFSCDCRSGWEGRFCQ; listed as Homo sapiens)
25 µg/mL: MIC against K. pneumonia ([2]; Klebsiella pneumonia, 5×10^5 CFU/mL, 10 h cultivation at 37° C.) | MIC against P. aeruginosa ([3]; Pseudomonas aeruginosa, 5×10^5 CFU/mL, 10 h cultivation at 37° C.) | MIC against P. vulgaris ([6]; Proteus vulgaris, 5×10^5 CFU/mL, 10 h cultivation at 37° C.) | MIC against M. catarrhalis ([10]; Moraxella catarrhalis, 5×10^5 CFU/mL, 10 h cultivation at 37° C.) | MIC against A. hydrophila ([11]; Aeromonas hydrophila, 5×10^5 CFU/mL, 10 h cultivation at 37° C.)
12.5 µg/mL: MIC against E. cloacae ([1]; Enterobacter cloacae, 5×10^5 CFU/mL, 10 h cultivation at 37° C.) | MIC against P. mirabilis ([7]; Proteus mirabilis, 5×10^5 CFU/mL, 10 h cultivation at 37° C.) | MIC against C. diversus ([9]; Citrobacter diversus, 5×10^5 CFU/mL, 10 h cultivation at 37° C.)
50 µg/mL: MIC [4] | MIC against S. marcescens ([5]; Serratia marcescens, 5×10^5 CFU/mL, 10 h cultivation at 37° C.) | MIC against E. coli BL21 ([8]; E. coli BL21, 5×10^5 CFU/mL, 10 h cultivation at 37° C.)

PRT745 (RQHPCAQDNGGCSHICLVKGDGTTRCSCPMHLVLLQDELSCG; listed as Homo sapiens)
12.5 µg/mL: MIC (μg/mL) K. pneumonia [2, 14] | MIC (μg/mL) M. catarrhalis [10, 21] | MIC (μg/mL) A. hydrophila [11, 22]
50 µg/mL: MIC (μg/mL) E. cloacae [1, 13] | MIC (μg/mL) P. aeruginosa [3, 15] | MIC [4] | MIC (μg/mL) P. vulgaris [6, 17] | MIC (μg/mL) C. diversus [9, 20]
25 µg/mL: MIC (μg/mL) S. marcescens [5, 16] | MIC (μg/mL) P. mirabilis [7, 18] | MIC (μg/mL) E. coli BL21 [8, 19]

PRT773 (PSNPCQDDPCADNSLCVKLHNTSFCLCLEGYYYNSSTCK; listed as Homo sapiens)
12.5 µg/mL: MIC (μg/mL) E. cloacae [1, 13] | MIC (μg/mL) P. aeruginosa [3, 15] | MIC (μg/mL) S. marcescens [5, 16] | MIC (μg/mL) P. mirabilis [7, 18] | MIC (μg/mL) C. diversus [9, 20]
25 µg/mL: MIC (μg/mL) E. coli BL21 [8, 19]
50 µg/mL: MIC (μg/mL) K. pneumonia [2, 14] | MIC [4] | MIC (μg/mL) P. vulgaris [6, 17] | MIC (μg/mL) M. catarrhalis [10, 21] | MIC (μg/mL) A. hydrophila [11, 22]

PRT1155 (QSVSCLNNLCLHQSLCIPDQSFSYSCLCTLGWVGRYCE; listed as Homo sapiens)
25 µg/mL: MIC P. aeruginosa [3, 23] | MIC [4] | MIC P. vulgaris [6, 23] | MIC M. catarrhalis [10, 23] | MIC A. hydrophila [11, 23]
50 µg/mL: MIC P. mirabilis [7, 23]
12.5 µg/mL: MIC E. cloacae [1, 23] | MIC K. pneumonia [2, 23] | MIC S. marcescens [5, 23] | MIC E. coli BL21 [8, 23] | MIC C. diversus [9, 23]
